biological target: DGKα (Homo sapiens, UniProt P23743); experiment: Human DGKα kinase activity inhibition assay (ADP-Glo); format: biochemical; design: made in house; host or cells: Sf9 insect cells, baculovirus; settings: in vitro, C-terminally FLAG-tagged recombinant full-length human DGKα, 1,2-dioleoyl-sn-glycerol substrate, ADP-Glo readout
Description: Human DGKα Kinase Activity Inhibition Assay. Human DGKα inhibitory activity of compounds of the present invention was quantified employing the human DGKα kinase activity assay as described in the following paragraphs. In essence, the enzyme activity was measured by quantification of the adenosine-di-phosphate (ADP) generated as a co-product of the enzyme reaction via the “ADP-Glo™ Kinase Assay” kit from the company Promega. This detection system works as follows: In a first step the ATP not consumed in the kinase reaction is quantitatively converted to […] (“ADP-Glo-reagent”), then the adenylate cyclase is stopped and the ADP generated in the kinase reaction converted to ATP, which subsequently generates in a luciferase-based reaction a glow-luminescence signal (“Kinase Detection Reagent”). C-terminally FLAG-tagged, recombinant full-length human DGKα (expressed in baculovirus infected insect cells, purified using anti-Flag pulldown and size exclusion chromatography as described below, DGKa_hu_1) was used as enzyme. As substrate for the kinase 1,2-dioleoyl-sn-glycerol, reconstituted in octyl-β-D-glucopyranoside micelles, was used. For the preparation of the micelles, 1 volume of a 16.1 mM solution of 1,2-dioleoyl-sn-glycerol (Avanti, Cat. #08001-25G) in chloroform was slowly evaporated using a nitrogen stream. Subsequently, 22.55 volumes of a 510 mM solution of octyl-β-D-glucopyranoside (Sigma-Aldrich, Cat. #08001-10G) in 50 mM MOPS buffer (pH 7.4) were added, and the mixture was sonicated in an ultrasonic bath for 20 s. Then 35 volumes of 50 mM MOPS buffer (pH 7.4) were added to yield a solution of 0.28 mM 1,2 dioleoyl-sn-glycerol and 200 mM octyl-β-D-glucopyranoside, which was aliquoted, flash-frozen in liquid nitrogen, and stored at −20° C. until use. For each experiment, a fresh aliquot was quickly thawed and diluted 24-fold with aqueous assay buffer (described below) containing 95.7 μM adenosine triphosphate (Promega) to yield a 1.67-fold concentrated substrate solution. For the assay 50 nl of a 100-fold concentrated solution of the test compound in dimethyl sulfoxide (DMSO, Sigma) was pipetted into either a white 1536-well or a white low-volume 384-well microtiter plate (both Greiner Bio-One, Frickenhausen, Germany). […] The concentration of DGK a was adjusted depending of the activity of the enzyme lot and was chosen appropriate to have the assay in the linear range, a typical concentration is about 0.1 nM. The reaction was stopped by the addition of 2.5 μl of “ADP-Glo-reagent” (1 to 1.5 diluted with water) and the resulting mixture was incubated at 22° C. for 1 h to convert the ATP no t consumed in the kinase reaction completely to […]. […] The amount of emitted light was taken as a measure for the amount of ADP generated and thereby for the activity of the DGKα.

DGKα, sequence (P23743 with tags, fused parts or gaps): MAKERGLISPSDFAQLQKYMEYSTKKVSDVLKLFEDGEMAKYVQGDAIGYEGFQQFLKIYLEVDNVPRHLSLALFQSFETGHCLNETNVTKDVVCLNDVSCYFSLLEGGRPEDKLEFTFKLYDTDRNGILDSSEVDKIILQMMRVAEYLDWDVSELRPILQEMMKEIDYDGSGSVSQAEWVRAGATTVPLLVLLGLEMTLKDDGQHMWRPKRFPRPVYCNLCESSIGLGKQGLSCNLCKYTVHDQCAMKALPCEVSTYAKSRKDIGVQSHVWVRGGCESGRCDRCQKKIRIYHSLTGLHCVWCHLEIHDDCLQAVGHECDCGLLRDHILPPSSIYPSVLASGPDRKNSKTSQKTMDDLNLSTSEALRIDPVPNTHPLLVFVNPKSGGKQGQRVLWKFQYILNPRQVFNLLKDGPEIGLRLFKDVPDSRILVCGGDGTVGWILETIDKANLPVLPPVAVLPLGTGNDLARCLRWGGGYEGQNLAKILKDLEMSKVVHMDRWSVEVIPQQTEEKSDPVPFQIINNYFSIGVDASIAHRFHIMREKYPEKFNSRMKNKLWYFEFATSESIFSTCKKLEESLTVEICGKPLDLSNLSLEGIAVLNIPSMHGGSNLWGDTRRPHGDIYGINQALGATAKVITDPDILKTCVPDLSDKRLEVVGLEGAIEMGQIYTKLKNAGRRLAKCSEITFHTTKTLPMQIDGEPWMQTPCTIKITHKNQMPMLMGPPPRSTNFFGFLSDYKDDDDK

Point of comparison: `COc1ccc(N2CC3(CCN(c4c(C#N)c(=O)n(C)c5ccccc45)C3)C2)cc1` [Example 5, 4-[2-(4-methoxyphenyl)-2,6-diazaspiro[3.4]octan-6-yl]-1-methyl-2-oxo-1,2-dihydro-quinoline-3-carbonitrile], IC50 103 nM. Against it:
- COCCN(C)c1ccc2c(N3CCC4(CCN(c5cccc(OC(F)(F)F)c5)C4)CC3)c(C(N)=O)c(=O)n(C)c2c1 [Example 35, 7-[(2-methoxyethyl)(methyl)amino]-1-methyl-2-oxo-4-{2-[3-(trifluoromethoxy)phenyl]-2,8-diazaspiro[4.5]decan-8-yl}-1,2-dihydroquinoline-3-carboxamide] — 1.5-fold lower, 68 nM
- Cn1c(=O)c(C#N)c(N2CCC3(CCN(c4ccc(OC(F)(F)F)cc4)C3)C2)c2ccccc21 (stereo not drawn) [Example 19, 1-methyl-2-oxo-4-{7-[4-(trifluoromethoxy)phenyl]-2,7-diazaspiro[4.4]nonan-2-yl}-1,2-dihydroquinoline-3-carbonitrile] — within 1.5-fold, 122 nM
- CN(C)c1ccc(N2CC3(CCN(c4c(C(N)=O)c(=O)n(C)c5ccccc45)C3)C2)cc1 [Example 28, 4-{2-[4-(dimethylamino)phenyl]-2,6-diazaspiro[3.4]octan-6-yl}-1-methyl-2-oxo-1,2-dihydroquinoline-3-carboxamide] — 17-fold higher, 1720 nM
- Cn1c(=O)c(C#N)c(N2CCC3(CN(c4ccc(F)cc4)C3)C2)c2ccccc21 [Example 4, 4-[2-(4-fluorophenyl)-2,6-diazaspiro[3.4]octan-6-yl]-1-methyl-2-oxo-1,2-dihydroquinoline-3-carbonitrile] — 2.9-fold lower, 35 nM
- COc1cccc(N2CCC3(CCN(c4c(C#N)c(=O)n(C)c5ccccc45)CC3)C2)c1 [Example 9, 4-[2-(3-methoxyphenyl)-2,8-diazaspiro[4.5]decan-8-yl]-1-methyl-2-oxo-1,2-dihydro-quinoline-3-carbonitrile] — 9.4-fold lower, 11 nM
- Cn1c(=O)c(C#N)c(N2CC3(CCCN(c4ccc(F)cc4)C3)C2)c2ccccc21 [Example 16, 4-[6-(4-fluorophenyl)-2,6-diazaspiro[3.5]nonan-2-yl]-1-methyl-2-oxo-1,2-dihydro-quinoline-3-carbonitrile] — 6.9-fold lower, 15 nM
- CN(C)c1ccccc1N1CCC2(CCN(c3c(C#N)c(=O)n(C)c4ccccc34)CC2)C1 [Example 13, 4-{2-[2-(dimethylamino)phenyl]-2,8-diazaspiro[4.5]decan-8-yl}-1-methyl-2-oxo-1,2-dihydroquinoline-3-carbonitrile] — 2-fold lower, 51 nM
- Cn1c(=O)c(C#N)c(N2CCC3(CN(c4ccc(OC(F)(F)F)cc4)C3)C2)c2ccccc21 [Example 17, 1-methyl-2-oxo-4-{2-[4-(trifluoromethoxy)phenyl]-2,6-diazaspiro[3.4]octan-6-yl}-1,2-dihydroquinoline-3-carbonitrile] — 29-fold lower, 3.5 nM
- Cn1c(=O)c(C#N)c(N2CCC3(CN(c4ccc(N5CCCC5=O)cc4)C3)C2)c2ccccc21 [Example 22, 1-methyl-2-oxo-4-{2-[4-(2-oxopyrrolidin-1-yl)phenyl]-2,6-diazaspiro[3.4]octan-6-yl}-1,2-dihydroquinoline-3-carbonitrile] — 4.6-fold higher, 477 nM
- CN(C)c1cccc(N2CCC3(CCN(c4c(C#N)c(=O)n(C)c5ccccc45)CC3)C2)c1 [Example 11, 4-{2-[3-(dimethylamino)phenyl]-2,8-diazaspiro[4.5]decan-8-yl}-1-methyl-2-oxo-1,2-dihydroquinoline-3-carbonitrile] — 3.7-fold lower, 28 nM
- Cn1c(=O)c(C#N)c(N2CCC3(CCN(c4ccc(F)c(F)c4)C3)CC2)c2ccccc21 [Example 3, 4-[2-(3,4-difluorophenyl)-2,8-diazaspiro[4.5]decan-8-yl]-1-methyl-2-oxo-1,2-dihydro-quinoline-3-carbonitrile] — 2.6-fold lower, 39 nM
- Cn1c(=O)c(C(N)=O)c(N2CCC3(CN(c4ccc(F)cc4)C3)C2)c2ccccc21 [Example 27, 4-[2-(4-fluorophenyl)-2,6-diazaspiro[3.4]octan-6-yl]-1-methyl-2-oxo-1,2-dihydroquinoline-3-carboxamide] — 1.5-fold higher, 158 nM
- Cn1c(=O)c(C#N)c(N2CCC3(CCN(c4ccccc4OC(F)(F)F)C3)CC2)c2ccccc21 [Example 14, 1-methyl-2-oxo-4-{2-[2-(trifluoromethoxy)phenyl]-2,8-diazaspiro[4.5]decan-8-yl}-1,2-dihydroquinoline-3-carbonitrile] — 1.7-fold lower, 61 nM
- Cn1c(=O)c(C#N)c(N2CCC3(CN(c4ccc(Cl)cc4)C3)C2)c2ccc(Br)cc21 [Example 30, 7-bromo-4-[2-(4-chlorophenyl)-2,6-diazaspiro[3.4]octan-6-yl]-1-methyl-2-oxo-1,2-dihydroquinoline-3-carbonitrile] — within 1.5-fold, 75 nM
- COCCN(C)c1ccc2c(N3CCC4(CCN(c5cccc(Cl)c5)C4)CC3)c(C(N)=O)c(=O)n(C)c2c1 [Example 36, 4-[2-(3-chlorophenyl)-2,8-diazaspiro[4.5]decan-8-yl]-7-[(2-methoxyethyl)(methyl)amino]-1-methyl-2-oxo-1,2-dihydroquinoline-3-carboxamide] — 2.1-fold lower, 49 nM
- CN(C)c1ccc(N2CC3(CCN(c4c(C#N)c(=O)n(C)c5ccccc45)C3)C2)cc1 [Example 21, 4-{2-[4-(dimethylamino)phenyl]-2,6-diazaspiro[3.4]octan-6-yl}-1-methyl-2-oxo-1,2-dihydroquinoline-3-carbonitrile] — 1.6-fold higher, 163 nM
- Cn1c(=O)c(C#N)c(N2CCC3(CN(c4ccc(Cl)cc4)C3)C2)c2ccccc21 [Example 6, 4-[2-(4-chlorophenyl)-2,6-diazaspiro[3.4]octan-6-yl]-1-methyl-2-oxo-1,2-dihydroquinoline-3-carbonitrile] — 10-fold lower, 10 nM
- Cn1c(=O)c(C#N)c(N2CCC3(CCN(c4ccc(OC(F)(F)F)cc4)C3)CC2)c2ccccc21 [Example 8, 1-methyl-2-oxo-4-{2-[4-(trifluoromethoxy)phenyl]-2,8-diazaspiro[4.5]decan-8-yl}-1,2-dihydroquinoline-3-carbonitrile] — 6.1-fold lower, 17 nM
- Cn1c(=O)c(C#N)c(N2CC3(CCN(c4ccc(F)cc4)C3)C2)c2ccccc21 [Example 7, 4-[6-(4-fluorophenyl)-2,6-diazaspiro[3.4]octan-2-yl]-1-methyl-2-oxo-1,2-dihydroquinoline-3-carbonitrile] — 1.6-fold lower, 63 nM
- COCCN(C)c1ccc2c(N3CCC4(CCN(c5cccc(Cl)c5)C4)CC3)c(C#N)c(=O)n(C)c2c1 [Example 34, 4-[2-(3-chlorophenyl)-2,8-diazaspiro[4.5]decan-8-yl]-7-[(2-methoxyethyl)(methyl)amino]-1-methyl-2-oxo-1,2-dihydroquinoline-3-carbonitrile] — 5.4-fold lower, 19 nM
- Cn1c(=O)c(C#N)c(N2CCC3(CN(c4ccc(OC(F)(F)F)cc4)C3)C2)c2ccc(Br)cc21 [Example 29, 7-bromo-1-methyl-2-oxo-4-{2-[4-(trifluoromethoxy)phenyl]-2,6-diazaspiro[3.4]octan-6-yl}-1,2-dihydroquinoline-3-carbonitrile] — 2.2-fold lower, 46 nM
- Cn1c(=O)c(C#N)c(N2CCC3(CCN(c4ccc(F)cc4)C3)CC2)c2ccccc21 [Example 2, 4-[2-(4-fluorophenyl)-2,8-diazaspiro[4.5]decan-8-yl]-1-methyl-2-oxo-1,2-dihydroquinoline-3-carbonitrile] — 2.7-fold lower, 38 nM
- Cn1c(=O)c(C#N)c(N2CCC3(CN(c4ccc(N5CCOCC5)cc4)C3)C2)c2ccccc21 [Example 24, 1-methyl-4-{2-[4-(morpholin-4-yl)phenyl]-2,6-diazaspiro[3.4]octan-6-yl}-2-oxo-1,2-dihydroquinoline-3-carbonitrile] — 17-fold higher, 1700 nM

— US20230064809A1, “SUBSTITUTED AMINOQUINOLONES AS DGKALPHA INHIBITORS FOR IMMUNE ACTIVATION” (Bayer Aktiengesellschaft, priority 2019, published 2023)
